Assay results from patent EP2524918A1, “Imidazopyrazines derivates as kinase inhibitors” (Centro Nacional de Investigaciones Oncológicas (CNIO), priority 2011, dated 2012).
pEC50, pIC50: −log10 of the molar value.

Assays:
PI3K (p110α/p85α) = biological target: T1, PI3K (p110α/p85α (Homo sapiens, UniProt P42336)); assay: PI3K activity assay (ADP Hunter Plus); format: biochemical; conditions: 50 µM ATP, 30 µM PIP2, 1 hour at 25°C; read-out: PI3Kα IC50
T1 construct: purchased Carna Biosciences #07CBS-0402A
T1 sequence (P42336 whole entry): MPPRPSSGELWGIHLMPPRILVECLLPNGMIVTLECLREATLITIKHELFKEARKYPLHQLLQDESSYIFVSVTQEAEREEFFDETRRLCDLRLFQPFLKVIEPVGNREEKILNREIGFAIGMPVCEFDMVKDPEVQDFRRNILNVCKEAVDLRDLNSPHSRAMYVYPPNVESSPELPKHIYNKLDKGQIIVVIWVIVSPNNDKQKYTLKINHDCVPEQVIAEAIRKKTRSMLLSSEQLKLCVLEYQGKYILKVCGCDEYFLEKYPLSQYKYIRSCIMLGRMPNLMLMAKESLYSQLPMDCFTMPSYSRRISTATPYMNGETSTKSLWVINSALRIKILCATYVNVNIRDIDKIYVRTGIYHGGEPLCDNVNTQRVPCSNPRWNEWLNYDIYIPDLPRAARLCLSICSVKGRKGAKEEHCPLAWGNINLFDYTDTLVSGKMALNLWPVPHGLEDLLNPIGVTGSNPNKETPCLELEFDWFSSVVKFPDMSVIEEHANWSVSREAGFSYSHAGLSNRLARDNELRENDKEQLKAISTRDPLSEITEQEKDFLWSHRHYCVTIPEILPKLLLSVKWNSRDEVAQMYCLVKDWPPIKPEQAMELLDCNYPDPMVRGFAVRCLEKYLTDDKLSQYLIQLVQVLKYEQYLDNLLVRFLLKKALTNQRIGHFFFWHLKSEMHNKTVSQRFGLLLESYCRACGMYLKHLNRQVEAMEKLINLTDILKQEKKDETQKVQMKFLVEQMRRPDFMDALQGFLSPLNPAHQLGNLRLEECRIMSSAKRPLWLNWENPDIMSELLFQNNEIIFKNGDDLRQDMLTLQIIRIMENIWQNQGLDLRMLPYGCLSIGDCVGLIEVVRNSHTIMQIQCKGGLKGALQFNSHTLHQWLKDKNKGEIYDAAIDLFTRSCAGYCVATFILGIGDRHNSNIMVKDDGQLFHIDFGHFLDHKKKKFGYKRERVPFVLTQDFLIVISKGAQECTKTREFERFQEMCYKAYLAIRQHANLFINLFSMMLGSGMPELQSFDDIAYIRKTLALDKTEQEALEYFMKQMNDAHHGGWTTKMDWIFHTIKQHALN
T1 sequence (P27986 whole entry partner): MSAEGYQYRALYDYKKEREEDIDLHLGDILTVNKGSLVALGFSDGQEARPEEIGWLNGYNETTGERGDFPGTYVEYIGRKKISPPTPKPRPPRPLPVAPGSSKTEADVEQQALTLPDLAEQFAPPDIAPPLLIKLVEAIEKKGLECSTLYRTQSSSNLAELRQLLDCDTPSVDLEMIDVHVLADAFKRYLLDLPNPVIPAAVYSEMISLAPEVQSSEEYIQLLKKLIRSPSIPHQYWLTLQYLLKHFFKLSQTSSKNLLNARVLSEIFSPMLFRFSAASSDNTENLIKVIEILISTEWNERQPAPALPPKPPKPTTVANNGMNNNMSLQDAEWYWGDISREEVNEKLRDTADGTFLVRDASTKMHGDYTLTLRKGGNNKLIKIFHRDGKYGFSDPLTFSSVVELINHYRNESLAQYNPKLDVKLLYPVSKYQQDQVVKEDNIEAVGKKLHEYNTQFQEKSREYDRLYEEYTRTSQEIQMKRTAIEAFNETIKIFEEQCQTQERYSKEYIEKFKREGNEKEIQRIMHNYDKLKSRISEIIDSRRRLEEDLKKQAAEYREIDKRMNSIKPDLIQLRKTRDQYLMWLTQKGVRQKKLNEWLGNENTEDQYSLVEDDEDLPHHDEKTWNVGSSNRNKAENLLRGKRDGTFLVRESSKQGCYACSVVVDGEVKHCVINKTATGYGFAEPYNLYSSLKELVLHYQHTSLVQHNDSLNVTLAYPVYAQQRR
Description: The kinase activity was measured by using the commercial ADP Hunter™ Plus assay available from DiscoveRx (#33-016), which is a homogeneous assay to measure the accumulation of ADP, a universal product of kinase activity. […] Reaction was carried out for 1 hour at 25°C. Reagent A and B were sequentially added to the wells and plates were incubated for 30 min at 37 °C. Fluorescence counts were read in a Victor instrument (Perkin Elmer) with the recommended settings (544 and 580 nm as excitation and emission wavelengths, respectively). Values were normalized against the control activity included for each enzyme (i.e., 100 % PI3 kinase activity, without compound). These values were plot against the inhibitor concentration and were fit to a sigmoid dose-response curve by using the Graphad software.

HDAC = HDAC enzymatic activity (HDAC-Glo I/II Screening System, HeLa cell nuclear extracts); format: biochemical; conditions: HeLa cell nuclear extract, 25°C for 30 minutes
Description: HDAC inhibitory activity was evaluated using the HDAC-Glo™ I/II Screening System from Promega (G6430) using manufacturing recommendations. The system emploies HeLa cell nuclear extracts as a source of HDAC activities. The assay uses an acetylated, live-cell-permeant, luminogenic peptide substrate that can be deacetylated by HDAC activities. Substrate deacetylation is measured by a coupled protease reaction that cleaves the peptide from aminoluciferin, which is quantified in a reaction using recombinant Ultra-Glo™ firefly luciferase. Test compounds were serially diluted in dimethylsulphoside (DMSO) and added to HeLa cell nuclear extract in the presence of the acetylated luminogenic peptide substrate and developer reagent. Reactions were incubated at 25°C for 30 minutes and luminescence was measured in the EnVision plate reader (Perkin Elmer). Data were analyzed using GraphPad Prism (v5.03) with a sigmoidal dose-response curve fitting for IC50 calculation.

[1] = test system: phospho-Akt1 (Ser473) protein; assay: PI3K cellular activity (Elisa assay), AKT phosphorylation in U2OS cells; format: cell-based; conditions: Homo sapiens, U20S cells, inhibition of phosphorylation of AKT, 3h treatment, read-out: AKT_P_U20S_ELISA_EC50
Description: Activity is measured as endogenous levels of phospho-Akt1 (Ser473) protein. Osteosarcoma U2OS cells are plated in 96 Poly-D-Lysine coating tissue culture plates (18.000 cells/well). After the treatment with serial dilutions of the compound during 3h, the cells are fixed directly in the wells with 4% paraformaldehyde.
After fixing, individual wells go through the same series of steps used for a conventional immunoblot: including blocking with 5% BSA, incubation with 1/1000 of primary antibody-AKT ([…]) in PBS containing 5% BSA at 4°C overnight (Cell Signalling), washing and incubation with second antibody HRP-anti-mouse IgG for 1 h at RT (Amersham). After the addition of SuperSignal ELISA Femto maximum sensitivity chemiluminescent substrate (Pierce) the results are read using a luminescence plate reader (Victor).

[2] = test system: phospho-Akt1 (Ser473) protein; assay: PI3K cellular activity (Elisa assay), AKT phosphorylation in SKMEL cells; format: cell-based; conditions: inhibition of phosphorylation of AKT, read-out: AKT_P_SKMEL_ELISA_EC50
PC3 = assay: Antiproliferation MTT assay, PC3; format: cell-based; conditions: Homo sapiens, PC-3; Prostate
Description: (§1) Cells were seeded at 10000-50000 cells/well in 96 plates for 16 h. On day two, nine serial 1:3 compound dilutions were made in DMSO in a 96 well plate. The compounds were added to duplicate wells in 96-well cell plates a using a FX BECKMAN robot (Beckman Coulter) and incubated at 37°C with CO2 atmosphere. After 3 days, relative numbers of viable cells were measured by MTT (Sigma) according to manufacturer's instruction and read on EndVision (Perkin Elmer). EC50 values were calculated using ActivityBase from IDBS. Drugs in combination assays were dosed starting at 4 x EC50 concentrations and continuing with serial dilutions 1:2. PI3K inhibitors and chemotherapeutic agents were added simultaneously.
(§2) An additional exemplary in vitro cell proliferation assay includes the following steps: • 1. An aliquot of 200 µl of cell culture containing optimal density (between 10^4 - 5x10^4 cells) (see Examples for cell lines and tumour type) in medium was deposited in each well of a 96-well flat bottom plates. • 2. Control wells were prepared containing medium without cells • 3. The compound was added to the experimental wells and incubated for 3 days. • 4. […] Formazan salt formed was recorded and reported in graphs as relative growth vs. cells treated only with dmso.

MV4:11 = assay: Antiproliferation assay, MV4:11; format: cell-based; conditions: Homo sapiens, AML, read-out: MMP MV4:11 IC50
Description: as §1
(§3) An additional exemplary in vitro cell proliferation assay includes the following steps: • 1. An aliquot of 200 µl of cell culture containing optimal density (between 10^4 - 5x10^4 cells) (see Examples for cell lines and tumour type) in medium was deposited in each well of a 96-well flat bottom plates. • 2. Control wells were prepared containing medium without cells • 3. The compound was added to the experimental wells and incubated for 3 days. • 4. One quarter volume of MTT reagent with respect to the volume of cell culture medium present in each well was added and incubated 24h at 37°C with 5% CO2. • 5. One quarter volume of solubilisation buffer with respect to the volume of cell culture medium present in each well was added and incubated 24h at 37°C with 5% CO2. • 6. Formazan salt formed was recorded and reported in graphs as relative growth vs. cells treated only with dmso.

HCT 116p53 ++ = assay: Antiproliferation MTT assay, HCT 116; format: cell-based; conditions: Homo sapiens, HCT-116, Colon Cancer
Description: as §1, §3

COLO206 = assay: Antiproliferation MTT assay, COLO206; format: cell-based; conditions: Colon Cancer
Description: as §1, §3

SW620 = assay: Antiproliferation MTT assay, SW620; format: cell-based; conditions: Homo sapiens, SW-620; Colon Cancer
Description: as §1, §2

HT39 = assay: Antiproliferation MTT assay, HT39; format: cell-based; conditions: Colon Cancer
Description: as §1, §3

A549 = assay: Antiproliferation MTT assay, A549; format: cell-based; conditions: Homo sapiens, A549, Lung Cancer
Description: as §1, §3

NCI H23 = assay: Antiproliferation MTT assay, NCI H23; format: cell-based; conditions: Homo sapiens, Lung Cancer
Description: as §1, §3

NCI H1975 = assay: Antiproliferation MTT assay, NCI H1975; format: cell-based; conditions: Homo sapiens, Lung Cancer
Description: as §1, §3

NCI H460 = assay: Antiproliferation MTT assay, NCI H460; format: cell-based; conditions: Homo sapiens, Lung Cancer
Description: as §1, §2

SKMEL19 = assay: Antiproliferation MTT assay, SKMEL19; format: cell-based; conditions: Homo sapiens, SK-MEL19, Melanoma
Description: as §1, §3

SKMel29 = assay: Antiproliferation MTT assay, SKMel29; format: cell-based; conditions: Melanoma
Description: as §1, §3

U2OS = assay: Antiproliferation MTT assay, U2OS; format: cell-based; conditions: Homo sapiens, Osteosar coma
Description: as §1, §3

MCF7 = assay: Antiproliferation MTT assay, MCF7; format: cell-based; conditions: Homo sapiens, Breast cancer
Description: as §1, §2

MDAMB 231 = assay: Antiproliferation MTT assay, MDAMB 231; format: cell-based; conditions: Homo sapiens, MDA-MB-231; Breast cancer
Description: as §1, §3

BT474 = assay: Antiproliferation MTT assay, BT474; format: cell-based; conditions: Homo sapiens, BT-474; Breast cancer
Description: as §1, §3

Raji = assay: Antiproliferation MTT assay, Raji; format: cell-based; conditions: Homo sapiens, Burkitt Lymphoma
Description: as §1, §3

Miapaca = assay: Antiproliferation MTT assay, Miapaca; format: cell-based; conditions: Homo sapiens, MIA PaCa-2; Pancreas
Description: as §1, §3

[3] = first of two columns with the same head (c3)
[4] = first of two columns with the same head (c1)
[5] = second of two columns with the same head (c2)

Nc1ncc(-c2cn3cc(CN4CCN(c5ncc(C(=O)NO)cn5)CC4)nc3c(N3CCOCC3)n2)cn1 [Final Compound 2] gave a pIC50 (PI3K (p110α/p85α)) of 8.49, a pIC50 (HDAC) of 8.05 and a pEC50 [1] of 5.87. For the same compound, the pEC50 [2] was 7.15, the pIC50 (PC3) was 5.93 and the pIC50 (MV4:11) was 6.47. It also gave a pIC50 (HCT 116p53 ++) of 6.17, a pIC50 (HCT 116p53 ++; [3]) of 5.94 and a pIC50 (COLO206) of 6.25. It also gave a pIC50 (SW620) of 5.87, a pIC50 (HT39) of 5.92 and a pIC50 (A549; [4]) of 5.45. For the same compound, the pIC50 (A549; [5]) was 5.88, the pIC50 (NCI H23) was 5.67 and the pIC50 (NCI H1975) was 5.98. For the same compound, the pIC50 (NCI H460) was 5.62, the pIC50 (SKMEL19; [4]) was 6.43 and the pIC50 (SKMEL19; [5]) was 7.15. For the same compound, the pIC50 (SKMel29) was 7.80, the pIC50 (U2OS) was 5.68 and the pIC50 (MCF7) was 6.27. The pIC50 (MDAMB 231) was 6.25, the pIC50 (BT474) was 7.03 and the pIC50 (Raji) was 6.55. For the same compound, the pIC50 (Miapaca) was 6.20.
Nc1ncc(-c2cn3cc(CNc4ncc(C(=O)NO)cn4)nc3c(N3CCOCC3)n2)cn1 [Final Compound 1] was tested, and the pIC50 (PI3K (p110α/p85α)) was 8.24, the pIC50 (HDAC) was 7.68 and the pEC50 [2] was 6.48. It also gave a pIC50 (PC3) of 5.24, a pIC50 (MV4:11) of 5.94 and a pIC50 (HCT 116p53 ++) of 5.11. The pIC50 (HCT 116p53 ++; [3]) was 5.17, the pIC50 (COLO206) was 5.23 and the pIC50 (HT39) was 4.46. For the same compound, the pIC50 (A549; [4]) was 4.29, the pIC50 (NCI H23) was 4.11 and the pIC50 (NCI H1975) was 4.84. For the same compound, the pIC50 (SKMEL19; [4]) was 5.48, the pIC50 (SKMEL19; [5]) was 5.64 and the pIC50 (SKMel29) was 5.88. The pIC50 (U2OS) was 5.27, the pIC50 (MDAMB 231) was 5.24 and the pIC50 (BT474) was 6.30. For the same compound, the pIC50 (Raji) was 5.56 and the pIC50 (Miapaca) was 5.36.
For CN(Cc1cn2cc(-c3cnc(N)nc3)nc(N3CCOCC3)c2n1)c1ncc(C(=O)NO)cn1 [Final Compound 3], the pIC50 (PI3K (p110α/p85α)) was 8.12, the pIC50 (HDAC) was 7.97 and the pEC50 [1] was 7.59. It also gave a pEC50 [2] of 5.71, a pIC50 (MV4:11) of 7.40 and a pIC50 (HCT 116p53 ++) of 6.62. For the same compound, the pIC50 (HCT 116p53 ++; [3]) was 6.39, the pIC50 (COLO206) was 6.82 and the pIC50 (SW620) was 6.40. It also gave a pIC50 (HT39) of 6.24, a pIC50 (A549; [4]) of 5.97 and a pIC50 (A549; [5]) of 6.00. The pIC50 (NCI H23) was 5.69, the pIC50 (NCI H1975) was 6.62 and the pIC50 (NCI H460) was 5.77. For the same compound, the pIC50 (SKMEL19; [4]) was 7.00, the pIC50 (SKMEL19; [5]) was 7.37 and the pIC50 (SKMel29) was 7.80. It also gave a pIC50 (U2OS) of 6.60, a pIC50 (MCF7) of 6.92 and a pIC50 (MDAMB 231) of 6.74. For the same compound, the pIC50 (BT474) was 7.72, the pIC50 (Raji) was 7.29 and the pIC50 (Miapaca) was 6.82.
